Patent publication US20240277829A1, “HIV-1 VACCINATION AND SAMT-247 MICROBICIDE TO PREVENT HIV-1 INFECTION” (priority 2021, published 2024)

Assays:
[1] = test system: human PBMC effector cells; experiment: ADCC assay using SAMT-247; type: cell-based
Procedure: ADCC CEM-based assay. ADCC activity was assessed as previously described using EGFP-CEM-NKr-CCR5-SNAP cells that constitutively express GFP as targets (Rahman, M. A., et al, J Immunol 203, 2459-2471(2019)). Briefly, one million target cells were incubated with 50 μg of ΔV1 gp120 protein for 2 h at 37° C. After this coating, the target cells were washed and labeled with SNAP-SURFACE® ALEXA FLUOR® 647 (New England Biolabs, Connecticut, USA S9136S) per manufacturer recommendations for 30 min at RT. Plasma samples, heat inactivated at 56° C. for 30 min, were serially diluted (7 ten-fold dilutions starting at 1:10) and 100 μl were added to wells of a 96-well V-bottom plate (Millipore Sigma). 5000 target cells (50 μl) and 250,000 human PBMCs (50 μl) were added as effectors to each well to give an effector/target (E/T) ratio of 50:1. The plate was incubated at 37° C. for 2 h followed by two PBS washes. […] Specific killing was measured by loss of GFP from the SNAPAlexa647+ target cells. […] Normalized percent killing was calculated as: (killing in the presence of plasma-background)/(killing in the presence of KK17-background) X100. […]
ADCC assay using SAMT-247. […] SAMT-247 induced ADCC was measured by subtracting ADCC with no SAMT-247 treated effector cells from ADCC with SAMT-247 treated effector cells.

[2] = test system: NKG2A^+ cells; experiment: Zinc chelation: macaque blood NK cells, SAMT-247 and/or gp120 peptides with or without TPEN; type: cell-based; conditions: presence or absence of gp120 peptide
Procedure: Zinc chelation: The frequencies and cytokine levels of NK cells, monocytes and T cells were measured in macaque blood. Cryopreserved PBMCs were thawed and cultured in R10 in the presence/or absence of SAMT-247 and/or gp120 peptides for 12 hours. Cells were incubated with or without Zinc chelator TPEN (cat. #P4413-100 MG, 5 μM) for 12 h. Subsequently, cells were stained for live cells with Live/Dead Blue dye (cat. #L34962, 0.5 μl) from Thermofisher; followed by surface staining with the following: Alexa 700 anti-CD3 (SP34-2; cat. #557917, 5 μl), BV711 anti-CD4 (L200; cat. #563913, 5 μl), BB700 anti-CD8 (RPA-T8; cat. #566452, 5 μl), BUV737 anti-CD20 (2H7; cat. #612848, 5 μl), PE anti-CD45 (D058-1283; cat. #552833, 5 μl), BV786 anti-CCR5 (3A9; cat. #565001, 5 μl), BV496 anti-CD16 (3G8; cat. #612944, 5 μl), BUV661 anti-HLA-DR (G46-6; cat. #612980, 5 μl), BUV805 anti-CD14 (M5E2; cat. #565779, 5 μl) from BD Biosciences; APC-H7 anti-CD11b (ICRF44; cat. #47-0118-42, 5 μl), PE-Cy5 anti-CD95 (ICRF44; cat. #15-0959-42, 5 μl) from eBioscience; APC anti-α4β7, provided by the NIH Nonhuman Primate Reagent Resource (R24 OD010976, and NIAID contract HHSN272201300031C); BV605 anti-CCR6 (G034E3; cat. #353420, 5 μl), BV650 anti-CXCR3 (G025H7; cat. #353730, 5 μl), from Biolegend and PE-Cy7 anti-NKG2A (Z199; cat. #B10246, 5 μl) from Beckman coulter for 30 minutes at room temperature. This was followed by permeabilization with a FOX3-transcription buffer set (cat. #00-5523-00) from eBioscience according to the manufacture's recommendation and subsequently intracellular staining with the following: BV750 anti-TNF-α (MAB11; cat. #566359, 5 μl), BUV395 anti-IFN-γ (B27; cat. #563563, 5 μl), BV510 anti-GranB (GB11; cat. #563388, 5 μl), BV421 anti-IL-10 (JES3-9D7; cat. #564053, 5 μl), PE-CF594 anti-Ki67 (B56; cat. #567120, 5 μl) from BD Biosciences and FITC anti-Perforin (pf-344; cat. #3465-7, 5 μl) from MABTECH for 30 minutes at room temperature. Flow cytometry acquisitions were performed on a FACSYMPHONY™ A5 and examined using FACSDIVA™ software (BD Biosciences).

CC(=O)Sc1ccccc1C(=O)NCCC(N)=O [SAMT-247]
Function ([1]; NKG2A^+, Blood and mucosa, PMA): >ADCC | ADCC activity mediated by the plasma of all vaccinated animals ([1]; effector human PBMCs pretreated with 100 nM SAMT-247 for 4 hours): significantly augments | frequency of NKG2A^+ cells [2]: increased
